One may read the IC50 as the point on the concentration scale where inhibition reaches its midpoint.

Where a name gives a salt, the structure may show the parent alone.

We go through two compounds from patent publication US5654296A, “Condensed heterocyclic compounds, their production and use” (priority 1994, dated 1997).

Common to all, as to type: biochemical
The test system of assay [1] is norepinephrine (NE) uptake. Briefly: Activity to inhibit norepinephrine (NE) uptake. The settings on record: rat cerebral cortex; 3H-NE; read-out: NE uptake inhibitory activity (IC50 μM). As to the method:
(§1) The experiment was performed in accordance with the method of Hyttel et al. [Psychopharmacology 60, 13, 1978]. The whole brain of a rat was homogenized in 40 volumes of ice-cooled 0.32M sucrose solution containing 10 μM pargyline and, then, centrifuged (600×G) for 10 minutes. The supernatant was centrifuged (2500×G) for 55 minutes to provide a pellet. This pellet was suspended in Krebs-Ringer-phosphate buffer (pH 7.4; 122 mM NaCl, 4.82 mM KCl, 0.972 mM CaCl2, 1.21 mM MgSO4, 12.7 mM Na2 HPO4, 2.97 mM NaH2 PO4, 0.162 mM EDTA sodium, 10 mM glucose, 1.14 mM ascorbic acid) saturated with a mixed gas (95% O and 5% CO2). To 900 μl of this suspention was added a solution of the test drug (10 μl) in DMSO and the mixture was incubated at 37° C. for 5 minutes. Then, 100 μl of ^3 H-5-HT (final concentration 10 nM) was added and the mixture was further incubated at 37° C. for 5 minutes. This reaction mixture was filtered under suction using a GF/B filter and the filter was washed with 4 ml of the above-mentioned buffer. The radioactivity on the filter was measured by the liquid scintillation method.
(b) Activity to inhibit norepinephrine (NE) uptake
Using the rat cerebral cortex and, as the substrate, ^3 H-NE, an experiment was performed by otherwise the same procedure as described for 5-HT.

Assay [2] has as its system serotonine (5-HT) uptake. As to the kind of experiment: Activity to inhibit serotonine (5-HT) uptake. The following applies: rat whole brain; 3H-5-HT 10 nM; 37° C.; pH 7.4; read-out: 5-HT uptake inhibitory activity (IC50 μM). As to the method:
(a) Activity to inhibit serotonine (5-HT) uptake
as §1
The amount of the drug which caused a 50% decrease in 5-HT uptake is shown as 50% inhibitory activity (IC50) in Table 42.

Assay [3] concerns 45Ca2+ uptake (veratrine-stimulated, rat cerebral cortex crude synaptosome fraction). Briefly: 45Ca2+ uptake inhibition experiment. The following applies: 30 μM veratrine, 37° C., 10 minutes, read-out: 45Ca2+ uptake inhibitory activity (IC50 μM). As to the method:
The rat cerebral cortex was homogenized in 10 volumes of ice-cooled 0.32M sucrose solution to prepare a crude synaptosome fraction (100×G, 10 min., 12000×G, 20 min.). […] To 900 μl of the homogenate was added a DMSO solution of the test drug (10 μl). The mixture was incubated at 37° C. for 10 minutes, followed by addition of 100 μl of a veratrine solution (containing 0.18 uci ^45 Ca^2+) at a final veratrine concentration of 30 μM. The mixture was incubated at 37° C. for 10 minutes, quenched with 4 ml of ice-cooled EGTA solution (120 mM sodium chloride, 5 mM potassium chloride, 5 mM EGTA, pH=7.5) and suction-filtered using a GF/B filter. The filter was washed twice with 4 ml each of a washing solution (132 mM sodium chloride, 5 mM potassium chloride, 1.3 mM magnesium chloride, 1.2 mM calcium, chloride, 20 mM Tris base, pH 7.5) and the radioactivity of […] was measured by the liquid scintillation method.
The ^45 Ca^2+ uptake inhibition rate was calculated by means of the following equation. [formula] A: The ^45 Ca^2+ uptake after 10 minutes' stimulation with 30 μM veratrine in the presence of the test drug
B: The ^45 Ca^2+ uptake in the absence of veratrine and in the presence of the test drug
C: The ^45 Ca^2+ uptake after 10 minutes' stimulation with 30 μM veratrine in the absence of the test drug
D: The ^45 Ca^2+ uptake in the absence of the test drug and in the absence of veratrine

Consider `COc1cccc(NC(=O)N2Cc3ccccc3C(CCN3CCN(c4ccc(F)cc4)CC3)(c3ccccc3)C2)c1` (stereo not drawn) [IV-20, 1,2,3,4-Tetrahydro-4-{2-[4-(p-fluorophenyl)piperazin-1-yl]ethyl}-2-(3-methoxyphenyl)carbamoyl-4-phenylisoquinoline hydrochloride], for which the results for the concentration for half-maximal inhibition (IC50) in assay [1], in assay [2] and in assay [3] were 0.12 µM, 0.03 µM and 0.17 µM, respectively.
On the same counts, the results for `CN(CCCC1(c2ccccc2)CN(C(=O)Nc2ccccc2)Cc2ccccc21)Cc1ccccc1` (stereo not drawn) [IV-19, 4-[3-(N-Benzyl-N-methylamino)propyl]-4-phenyl-2-phenylcarbamoyl-1,2,3,4-tetrahydroisoquinoline hydrochloride] are 0.56 µM, 0.23 µM and 0.95 µM.
